Test results as given in ChEMBL document CHEMBL4020848, “Antibacterial Activity Affected by the Conformational Flexibility in Glycine-Lysine Based α-Helical Antimicrobial Peptides” (J Med Chem, 2018).
Active and inactive are the calls of the source. The rule behind the calls is not given here.

Tests used:
Escherichia coli [1] = experiment: Induction of membrane permeabilization in Escherichia coli ATCC 25922 assessed as loss of pili/flagella at MBC after 1 hr by atomic force microscopic method; assay type: functional
Escherichia coli [2] = experiment: Induction of membrane permeabilization in Escherichia coli ATCC 25922 assessed as loss of pili/flagella at MIC after 1 hr by atomic force microscopic method; assay type: functional
Escherichia coli [3] = experiment: Antibacterial activity against Escherichia coli ATCC 25922 after 18 hrs by microdilution method; assay type: functional
Escherichia coli [4] = experiment: Bactericidal activity against Escherichia coli ATCC 25922 after 18 hrs by microdilution method; assay type: functional; details: for MBC: ATCC 25922, 18 h, read-out: MBC=>99.9
[5] = Selectivity index, ratio of HC50 for human RBC to MIC for Acinetobacter baumannii ATCC 19606
[6] = Selectivity index, ratio of HC50 for human RBC to MIC for Escherichia coli ATCC 25922
[7] = Selectivity index, ratio of HC50 for human RBC to MIC for Pseudomonas aeruginosa ATCC 27853
[8] = Cytotoxicity against human peripheral blood leukocytes assessed as cell viability at 50 uM after 24 hrs by acridine orange/ethidium bromide staining based fluorescence microscopic method relative to control; parameters: species or system Leukocyte; details: read-out: Activity
Acinetobacter baumannii [9] = experiment: Bactericidal activity against Acinetobacter baumannii ATCC 19606 after 18 hrs by microdilution method; assay type: functional; details: ATCC 19606 = CIP 70.34 = JCM 6841, 18 h, read-out: MBC=>99.9
Klebsiella pneumoniae [10] = experiment: Antibacterial activity against clinical isolates of Klebsiella pneumoniae after 18 hrs by microdilution method; assay type: functional
Escherichia coli [11] = experiment: Induction of membrane permeabilization in Escherichia coli ATCC 25922 assessed as formation of pores/cavities at MIC after 1 hr by atomic force microscopic method; assay type: functional
Escherichia coli [12] = experiment: Bactericidal activity against clinical isolates of Escherichia coli after 18 hrs by microdilution method; assay type: functional; details: read-out: MBC=>99.9
Pseudomonas aeruginosa [13] = experiment: Bactericidal activity against clinical isolates of Pseudomonas aeruginosa after 18 hrs by microdilution method; assay type: functional; details: read-out: MBC=>99.9
Escherichia coli [14] = experiment: Growth inhibition of Escherichia coli ATCC 25922 measured every 10 mins for 4 hrs; assay type: functional
Acinetobacter baumannii [15] = experiment: Antibacterial activity against Acinetobacter baumannii ATCC 19606 after 18 hrs by microdilution method; assay type: functional; details: ATCC 19606 = CIP 70.34 = JCM 6841, 18 h
[16] = Selectivity index, ratio of HC50 for human RBC to MIC for Klebsiella pneumoniae ATCC 13883
Klebsiella pneumoniae [17] = experiment: Antibacterial activity against Klebsiella pneumoniae ATCC 13883 after 18 hrs by microdilution method; assay type: functional; details: ATCC 13883, 18 h
Staphylococcus aureus [18] = experiment: Bactericidal activity against Staphylococcus aureus ATCC 25923 after 18 hrs by microdilution method; assay type: functional; details: ATCC 25923, 18 h, read-out: MBC=>99.9
[19] = Selectivity index, ratio of HC50 for human RBC to MIC for Escherichia coli
[20] = Cytotoxicity against human peripheral blood leukocytes assessed as cell viability at 50 uM after 4 hrs by acridine orange/ethidium bromide staining based fluorescence microscopic method relative to control; parameters: species or system Leukocyte; details: read-out: Activity
[21] = Selectivity index, ratio of HC50 for human RBC to MIC for Staphylococcus aureus
Pseudomonas aeruginosa [22] = experiment: Antibacterial activity against clinical isolates of Pseudomonas aeruginosa after 18 hrs by microdilution method; assay type: functional
Pseudomonas aeruginosa [23] = experiment: Bactericidal activity against Pseudomonas aeruginosa ATCC 27853 after 18 hrs by microdilution method; assay type: functional; details: ATCC 27853, 18 h, read-out: MBC=>99.9
Escherichia coli [24] = experiment: Induction of membrane permeabilization in Escherichia coli ATCC 25922 assessed as incipient damage at 0.25 uM after 1 hr by atomic force microscopic method; assay type: functional
Staphylococcus aureus [25] = experiment: Antibacterial activity against clinical isolates of Staphylococcus aureus after 18 hrs by microdilution method; assay type: functional
[26] = Cytotoxicity against human peripheral blood leukocytes assessed as cell viability at 100 uM after 24 hrs by acridine orange/ethidium bromide staining based fluorescence microscopic method relative to control; parameters: species or system Leukocyte; details: read-out: Activity
Acinetobacter baumannii [27] = experiment: Bactericidal activity against clinical isolates of Acinetobacter baumannii after 18 hrs by microdilution method; assay type: functional; details: read-out: MBC=>99.9
Klebsiella pneumoniae [28] = experiment: Bactericidal activity against clinical isolates of Klebsiella pneumoniae after 18 hrs by microdilution method; assay type: functional; details: read-out: MBC=>99.9
[29] = Selectivity index, ratio of HC50 for human RBC to MIC for Staphylococcus aureus ATCC 25923
[30] = Cytotoxicity against human peripheral blood leukocytes assessed as cell viability at 100 uM after 4 hrs by acridine orange/ethidium bromide staining based fluorescence microscopic method relative to control; parameters: species or system Leukocyte; details: read-out: Activity
[31] = Selectivity index, ratio of HC50 for human RBC to MIC for Klebsiella pneumoniae
[32] = Selectivity index, ratio of HC50 for human RBC to MIC for Pseudomonas aeruginosa
Escherichia coli [33] = experiment: Induction of membrane permeabilization in Escherichia coli ATCC 25922 assessed as massive damage at 0.5 to 1 uM after 1 hr by atomic force microscopic method; assay type: functional
Staphylococcus aureus [34] = experiment: Antibacterial activity against Staphylococcus aureus ATCC 25923 after 18 hrs by microdilution method; assay type: functional; details: ATCC 25923, 18 h
Escherichia coli [35] = experiment: Induction of membrane permeabilization in Escherichia coli ATCC 25922 assessed as propidium iodide uptake preincubated up to 60 mins followed by propidium iodide addition by flow cytometry; assay type: functional
Escherichia coli [36] = experiment: Antibacterial activity against clinical isolates of Escherichia coli after 18 hrs by microdilution method; assay type: functional
Escherichia coli [37] = experiment: Induction of membrane permeabilization in Escherichia coli ATCC 25922 assessed as bleb formation at MIC after 1 hr by atomic force microscopic method; assay type: functional
Pseudomonas aeruginosa [38] = experiment: Antibacterial activity against Pseudomonas aeruginosa ATCC 27853 after 18 hrs by microdilution method; assay type: functional; details: ATCC 27853, 18 h
Staphylococcus aureus [39] = experiment: Bactericidal activity against clinical isolates of Staphylococcus aureus after 18 hrs by microdilution method; assay type: functional; details: read-out: MBC=>99.9
[40] = Genotoxicity in human peripheral blood leukocytes assessed as DNA damage up to 100 uM up to 24 hrs by alkaline comet assay; assay type: toxicity, cell-based; details: leukocyte
[41] = Selectivity index, ratio of HC50 for human RBC to MIC for Acinetobacter baumannii
Klebsiella pneumoniae [42] = experiment: Bactericidal activity against Klebsiella pneumoniae ATCC 13883 after 18 hrs by microdilution method; assay type: functional; details: ATCC 13883, 18 h, read-out: MBC=>99.9
Escherichia coli [43] = experiment: Induction of membrane permeabilization in Escherichia coli ATCC 25922 assessed as massive cell disruption/collapse at MBC after 1 hr by atomic force microscopic method; assay type: functional
Escherichia coli [44] = experiment: Induction of membrane permeabilization in Escherichia coli ATCC 25922 assessed as surface indentations at MIC after 1 hr by atomic force microscopic method; assay type: functional
Acinetobacter baumannii [45] = experiment: Antibacterial activity against clinical isolates of Acinetobacter baumannii after 18 hrs by microdilution method; assay type: functional
Staphylococcus aureus [46] = experiment: Growth inhibition of Staphylococcus aureus ATCC 25923 measured every 10 mins for 4 hrs; assay type: functional
Escherichia coli [47] = experiment: Induction of membrane permeabilization in Escherichia coli ATCC 25922 assessed as propidium iodide uptake at MIC preincubated for 15 mins followed by propidium iodide addition by flow cytometry relative to control; assay type: functional

Substance: COLISTIN
- Activity (Escherichia coli [1]): Active
- Activity (Escherichia coli [2]): Active
- MIC (Escherichia coli [3]): 0.5 µM
- MBC=>99.9 (Escherichia coli [4]): 0.5 µM

Substance: H-KIAKGALKALKIAKVALKAL-NH2
- Selectivity Index [5]: 30 to 60
- Selectivity Index [6]: 60 to 120
- Selectivity Index [7]: 15
- viability at 24 h, 50 µM [8]: 92%
- MBC (Acinetobacter baumannii [9]): 1 µM
- Activity (Escherichia coli [1]): Active
- MIC (Klebsiella pneumoniae [10]): 4 µM
- Activity (Escherichia coli [11]): Active
- MBC (Escherichia coli [12]): 8 µM
- MBC (Pseudomonas aeruginosa [13]): 4 µM
- IC50 (Escherichia coli [14]): 350 nM
- MIC (Acinetobacter baumannii [15]): 0.5 to 1 µM
- Selectivity Index [16]: 15
- MIC (Klebsiella pneumoniae [17]): 2 µM
- MBC (Staphylococcus aureus [18]): 8 to 16 µM
- Selectivity Index [19]: 7
- viability at 4 h, 50 µM [20]: 92%
- Selectivity Index [21]: 4 to 8
- MIC (Pseudomonas aeruginosa [22]): 2 to 4 µM
- MBC (Pseudomonas aeruginosa [23]): 4 µM
- Activity (Escherichia coli [24]): Active
- MIC (Staphylococcus aureus [25]): 4 to 8 µM
- viability at 24 h, 100 µM [26]: 83%
- MBC (Acinetobacter baumannii [27]): 1 µM
- MBC (Klebsiella pneumoniae [28]): 8 µM
- Selectivity Index [29]: 2 to 4
- viability at 4 h, 100 µM [30]: 89%
- Selectivity Index [31]: 7
- Selectivity Index [32]: 7 to 15
- Activity (Escherichia coli [33]): Active
- MIC (Staphylococcus aureus [34]): 8 to 16 µM
- IC50 (Escherichia coli [35]): 500 nM
- MIC (Escherichia coli [36]): 4 µM
- Activity (Escherichia coli [37]): Active
- MIC (Pseudomonas aeruginosa [38]): 2 µM
- MBC (Staphylococcus aureus [39]): 8 µM
- Activity [40]: Non-Toxic
- Selectivity Index [41]: 60
- MBC (Klebsiella pneumoniae [42]): 2 µM
- Activity (Escherichia coli [43]): Active
- MIC (Escherichia coli [3]; ATCC 25922, 18 h): 0.25 to 0.5 µM
- Activity (Escherichia coli [44]): Active
- MBC (Escherichia coli [4]): 0.5 to 1 µM
- MIC (Acinetobacter baumannii [45]): 0.5 µM
- IC50 (Staphylococcus aureus [46]): 800 nM

Substance: H-KIALKALKALKALGKALKAL-NH2
- Selectivity Index [5]: 5
- Selectivity Index [6]: 5 to 10
- Selectivity Index [7]: < 1
- MBC (Acinetobacter baumannii [9]): 2 µM
- Activity (Escherichia coli [1]): Active
- MIC (Klebsiella pneumoniae [10]): 16 to 32 µM
- Activity (Escherichia coli [11]): Active
- MBC (Escherichia coli [12]): 32 µM
- MBC (Pseudomonas aeruginosa [13]): 32 µM
- IC50 (Escherichia coli [14]): 350 nM
- MIC (Acinetobacter baumannii [15]): 2 µM
- Selectivity Index [16]: 2 to 6
- MIC (Klebsiella pneumoniae [17]): 2 to 4 µM
- MBC (Staphylococcus aureus [18]): 4 µM
- Selectivity Index [19]: < 1
- Selectivity Index [21]: 2 to 6
- MIC (Pseudomonas aeruginosa [22]): 32 µM
- MBC (Pseudomonas aeruginosa [23]): 16 µM
- MIC (Staphylococcus aureus [25]): 2 to 4 µM
- MBC (Acinetobacter baumannii [27]): 32 µM
- MBC (Klebsiella pneumoniae [28]): 32 to 64 µM
- Selectivity Index [29]: 2.5
- Selectivity Index [31]: < 1
- Selectivity Index [32]: < 1
- MIC (Staphylococcus aureus [34]): 4 µM
- IC50 (Escherichia coli [35]): 200 nM
- Activity (Escherichia coli [47]): >80%
- MIC (Escherichia coli [36]): 32 µM
- Activity (Escherichia coli [37]): Active
- MIC (Pseudomonas aeruginosa [38]): 8 to 16 µM
- MBC (Staphylococcus aureus [39]): 4 to 8 µM
- Selectivity Index [41]: < 1
- MBC (Klebsiella pneumoniae [42]): 4 µM
- Activity (Escherichia coli [43]): Active
- MIC (Escherichia coli [3]; ATCC 25922, 18 h): 1 to 2 µM
- Activity (Escherichia coli [44]): Active
- MBC (Escherichia coli [4]): 2 to 4 µM
- MIC (Acinetobacter baumannii [45]): 16 to 32 µM
- IC50 (Staphylococcus aureus [46]): 400 nM
